From ChEMBL document CHEMBL5338717, “Discovery of novel PDE4 inhibitors targeting the M-pocket from natural mangostanin with improved safety for the treatment of Inflammatory Bowel Diseases” (Eur J Med Chem, 2022)
Calls of active or inactive are those of the source. The calls are words filed in the database; no cut-off is given here.

Assays:
[1] = biological target: T1, 3',5'-cyclic-AMP phosphodiesterase 4D (Homo sapiens, UniProt Q08499); experiment: Inhibition of recombinant PDE4D2 (86 to 413 residues) (unknown origin) expressed in Escherichia coli BL21 using [3H]cAMP as substrate incubated for 15 mins by liquid scintillation method
T1 sequence (Q08499 whole entry, the tested form may be a part): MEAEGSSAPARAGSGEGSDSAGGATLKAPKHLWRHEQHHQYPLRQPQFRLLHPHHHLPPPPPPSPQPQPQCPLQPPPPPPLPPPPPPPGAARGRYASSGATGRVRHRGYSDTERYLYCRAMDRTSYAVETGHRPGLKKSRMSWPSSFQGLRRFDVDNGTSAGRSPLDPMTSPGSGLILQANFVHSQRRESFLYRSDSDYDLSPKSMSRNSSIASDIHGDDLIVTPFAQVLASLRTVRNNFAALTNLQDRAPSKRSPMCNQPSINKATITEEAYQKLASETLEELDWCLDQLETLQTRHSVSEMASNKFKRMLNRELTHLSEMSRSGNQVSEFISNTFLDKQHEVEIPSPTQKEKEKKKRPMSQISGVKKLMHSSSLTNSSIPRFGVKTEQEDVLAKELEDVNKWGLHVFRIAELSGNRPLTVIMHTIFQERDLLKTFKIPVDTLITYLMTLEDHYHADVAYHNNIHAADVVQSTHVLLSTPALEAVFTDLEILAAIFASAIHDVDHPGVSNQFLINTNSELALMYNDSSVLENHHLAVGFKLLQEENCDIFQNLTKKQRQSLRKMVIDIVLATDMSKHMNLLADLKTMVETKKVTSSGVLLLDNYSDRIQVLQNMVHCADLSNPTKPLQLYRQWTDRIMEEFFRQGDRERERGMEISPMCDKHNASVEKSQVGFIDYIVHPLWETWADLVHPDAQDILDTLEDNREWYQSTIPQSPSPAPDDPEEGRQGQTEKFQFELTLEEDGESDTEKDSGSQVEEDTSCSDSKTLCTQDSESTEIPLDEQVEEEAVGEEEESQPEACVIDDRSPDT

[2] = Metabolic stability in rat liver microsomes assessed as half life; format: ADME, Microsome
Mus musculus [3] = experiment: Anti-inflammatory bowel disease activity in DSS-induced inflammatory bowel disease C57BL/6 mouse model assessed as increase in body weight at 25 mg/kg, iv BID and measured after 8 days […]; format: functional, organism-based; conditions: time 8.0 day
Mus musculus [4] = experiment: Anti-inflammatory bowel disease activity in DSS-induced inflammatory bowel disease C57BL/6 mouse model assessed as decrease in body weight loss by measuring disease activity index score at 25 mg/kg, iv BID and measured upto 8 days; format: functional, organism-based; conditions: time <= 8.0 day
Mus musculus [5] = experiment: Anti-inflammatory bowel disease activity in DSS-induced inflammatory bowel disease C57BL/6 mouse model assessed as decrease in IFN-gamma mRNA expression level in colon at 25 mg/kg, iv BID and measured after 8 days by real-time PCR analysis; format: functional, organism-based; conditions: time 8.0 day
[6] = biological target: T1, 3',5'-cyclic-AMP phosphodiesterase 4D; experiment: Inhibition of PDE4D2 (unknown origin)
Mus musculus [7] = experiment: Anti-inflammatory bowel disease activity in DSS-induced inflammatory bowel disease C57BL/6 mouse model assessed as decrease in goblet cells in colon at 25 mg/kg, iv BID and measured after 8 days by Haematoxylin and eosin staining based microscopy; format: functional, organism-based; conditions: time 8.0 day
Mus musculus [8] = experiment: Anti-inflammatory bowel disease activity in DSS-induced inflammatory bowel disease C57BL/6 mouse model assessed as decrease in epithelial damage in colon at 25 mg/kg, iv BID and measured after 8 days by Haematoxylin and eosin staining based microscopy; format: functional, organism-based; conditions: time 8.0 day
Mus musculus [9] = experiment: Anti-inflammatory bowel disease activity in DSS-induced inflammatory bowel disease C57BL/6 mouse model assessed as decrease in loss of crypt architecture in colon at 25 mg/kg, iv BID and measured after 8 days by Haematoxylin and eosin staining based microscopy; format: functional, organism-based; conditions: time 8.0 day
Mus musculus [10] = experiment: Anti-inflammatory bowel disease activity in DSS-induced inflammatory bowel disease C57BL/6 mouse model assessed as decrease in IL-6 mRNA expression level in colon at 25 mg/kg, iv BID and measured after 8 days by real-time PCR analysis; format: functional, organism-based; conditions: time 8.0 day
Mus musculus [11] = experiment: Anti-inflammatory bowel disease activity in DSS-induced inflammatory bowel disease C57BL/6 mouse assessed as decrease in neutrophil infiltration in colon at 25 mg/kg, iv BID and measured after 8 days by Haematoxylin and eosin staining based microscopy; format: functional, organism-based; conditions: time 8.0 day
Mus musculus [12] = experiment: Anti-inflammatory bowel disease activity in DSS-induced inflammatory bowel disease C57BL/6 mouse model assessed as decrease in rectal bleeding by measuring disease activity index score at 25 mg/kg, iv BID and measured upto 8 days by Haem-occult test; format: functional, organism-based; conditions: time <= 8.0 day
Mus musculus [13] = experiment: Anti-inflammatory bowel disease activity in DSS-induced inflammatory bowel disease C57BL/6 mouse model assessed as decrease in mucosal ulceration in colon at 25 mg/kg, iv BID and measured after 8 days by Haematoxylin and eosin staining based microscopy; format: functional, organism-based; conditions: time 8.0 day
Mus musculus [14] = experiment: Anti-inflammatory bowel disease activity in DSS-induced inflammatory bowel disease C57BL/6 mouse model assessed as decrease in TNF-alpha mRNA expression level in colon at 25 mg/kg, iv BID and measured after 8 days by real-time PCR analysis; format: functional, organism-based; conditions: time 8.0 day
Mus musculus [15] = experiment: Anti-inflammatory bowel disease activity in DSS-induced inflammatory bowel disease C57BL/6 mouse model assessed as decrease in diarrhoea by measuring disease activity index score at 25 mg/kg, iv BID and measured upto 8 days; format: functional, organism-based; conditions: time <= 8.0 day
Mus musculus [16] = experiment: Anti-inflammatory bowel disease activity in DSS-induced inflammatory bowel disease C57BL/6 mouse model assessed as increase in colon length at 25 mg/kg, iv BID and measured upto 8 days; format: functional, organism-based; conditions: time <= 8.0 day
Mus musculus [17] = experiment: Anti-inflammatory bowel disease activity in DSS-induced inflammatory bowel disease C57BL/6 mouse model assessed as decrease in IL-10 mRNA expression level in colon at 25 mg/kg, iv BID and measured after 8 days by real-time PCR analysis; format: functional, organism-based; conditions: time 8.0 day
[18] = Inhibition of PDE7 (unknown origin); set-up: species or system Homo sapiens
[19] = Toxicity in twelve hrs fasted Beagle dog assessed as emesis at 1 mg/kg,po and measured upto 180 mins; format: organism-based, Canis lupus familiaris; conditions: in vivo, 3 h

IC50 [1]	half-life [2]	SMILES	other results
12.4 nM	–	COc1c(OCc2ccc(F)cc2)cc2oc3cc4c(c(OCC5CCNCC5)c3c(=O)c2c1CC=C(C)C)C=CC(C)(C)O4	–
11.7 nM	2.08 min	COc1cc2oc3cc4c(c(OCc5ccncc5)c3c(=O)c2c(CC=C(C)C)c1OC)C=CC(C)(C)O4	–
1.4 nM	33 min	COc1c(OCc2ccc(F)cc2)cc2oc3cc4c(c(OCc5ccncc5)c3c(=O)c2c1CC=C(C)C)C=CC(C)(C)O4	–
203 nM	0.9 min	COc1c(O)cc2oc3cc4c(c(OCc5ccccn5)c3c(=O)c2c1CC=C(C)C)C=CC(C)(C)O4	–
> 1000 nM	–	COc1c(O)cc2oc3cc4c(c(OCc5ccccc5)c3c(=O)c2c1CC=C(C)C)C=CC(C)(C)O4	–
5.2 nM	78 min	COc1c(OC(C)C)cc2oc3cc4c(c(OCc5ccncc5)c3c(=O)c2c1CC=C(C)C)C=CC(C)(C)O4	–
–	–	OCCN(CCO)c1nc(N2CCCCC2)c2nc(N(CCO)CCO)nc(N3CCCCC3)c2n1 [DIPYRIDAMOLE]	Activity (Mus musculus [3]): inactive; Activity (Mus musculus [4]): Active; Activity (Mus musculus [5]): Active; IC50 [6]: 2800 nM; Activity (Mus musculus [7]): Active; Activity (Mus musculus [8]): Active; Activity (Mus musculus [9]): Active; Activity (Mus musculus [10]): Active; Activity (Mus musculus [11]): Active; Activity (Mus musculus [12]): Active; Activity (Mus musculus [13]): Active; Activity (Mus musculus [14]): Active; Activity (Mus musculus [15]): Active; Activity (Mus musculus [16]): Active; Activity (Mus musculus [17]): Active; IC50 [18]: 600 nM
–	8.1 min	COc1c(O)cc2oc3cc4c(c(O)c3c(=O)c2c1CC=C(C)C)C=CC(C)(C)O4 [MANGOSTANIN]	–
10.2 nM	2.98 min	CCOc1cc2oc3cc4c(c(OCc5ccncc5)c3c(=O)c2c(CC=C(C)C)c1OC)C=CC(C)(C)O4	–
9.3 nM	–	COc1c(OCc2cccc(F)c2)cc2oc3cc4c(c(OCc5ccccn5)c3c(=O)c2c1CC=C(C)C)C=CC(C)(C)O4	–
–	–	COc1ccc(C2CNC(=O)C2)cc1OC1CCCC1 (stereo not drawn) [ROLIPRAM]	Activity [19]: Toxic
7.8 nM	–	COc1c(OCc2cccc(F)c2)cc2oc3cc4c(c(OCc5ccncc5)c3c(=O)c2c1CC=C(C)C)C=CC(C)(C)O4	–
6.5 nM	3 min	COc1c(OCc2ccccn2)cc2oc3cc4c(c(OCc5ccccn5)c3c(=O)c2c1CC=C(C)C)C=CC(C)(C)O4	–
20.2 nM	–	COc1c(OCc2ccc(F)cc2)cc2oc3cc4c(c(OCc5ccccn5)c3c(=O)c2c1CC=C(C)C)C=CC(C)(C)O4	–
> 1000 nM	–	COc1c(O)cc2oc3cc4c(c(OCc5cccnc5)c3c(=O)c2c1CC=C(C)C)C=CC(C)(C)O4	–
25 nM	6.7 min	COc1c(O)cc2oc3cc4c(c(OCc5ccncc5)c3c(=O)c2c1CC=C(C)C)C=CC(C)(C)O4	–
8.2 nM	–	COc1c(OCc2ccc(F)cc2)cc2oc3cc4c(c(OCc5cccnc5)c3c(=O)c2c1CC=C(C)C)C=CC(C)(C)O4	–
1.4 nM	315 min	COc1c(OCc2ccccc2)cc2oc3cc4c(c(OCc5ccncc5)c3c(=O)c2c1CC=C(C)C)C=CC(C)(C)O4	–
10.6 nM	16 min	COc1c(OCc2ccncc2)cc2oc3cc4c(c(OCc5ccncc5)c3c(=O)c2c1CC=C(C)C)C=CC(C)(C)O4	–
